Experiment: Dissociation constant, pKa of the compound

Clc1ccccn1 [2-CHLOROPYRIDINE]
pKa: 0.49

Clc1cccnc1
pKa: 2.81

Clc1ccncc1
pKa: 3.83
